In patent US7033829B2, “Method to inhibit cell growth using oligonucleotides” (Trustees of Boston University, priority 2000, dated 2006):
Oligonucleotides are written 5' to 3', each unit as a sugar letter and its base; * is a phosphorothioate linkage, no mark a phosphodiester; rarer units and linkages stand in square brackets, end groups in braces. Plain capitals give the bases only. d = 2'-deoxy (DNA); {P} = phosphate

Legend:
[1] = test system: E2F1, p73, Mart-1, tyrosinase, TRP-1 and gp-100; test: Western blot of MM-AN melanoma cells; assay type: cell-based, human
Protocol: Proteins were analyzed by denaturing polyacrylamide gel electrophoresis (SDS-PAGE), using 10% polyacrylamide, and western blot analysis was done with an E2F1-specific monoclonal antibody (KH95 Santa Cruz Biotechnology, Santa Cruz, Calif.), and p73 analyzed using a polyclonal antibody (AB-4 from Oncogene Research Products, San Diego, Calif.). […] In order to determine the contribution of p73 to cell death, MM-AN melanoma cells were stably transfected with a dominant negative p73 (p73DN) (Irwin et al., Nature 402:645–648) construct or empty vector as a control (p73^DN-containing vector a gift from Dr. William Kaelin, Dana Farber Institute, Boston) and paired cultures were supplemented with 40 μM 11mer-1 or diluent alone, then harvested at 72 hours for FACS analysis. […] The above-mentioned differentiation markers are expressed in normal human melanocytes. It appears that the loss of expression of these antigens is a mechanism that a subset of human melanomas uses to escape immunosurveillance defenses. Several peptides from these antigens are targets of tumor infiltrating cytotoxic lymphocytes. Encouraging results have been obtained in vivo with different vaccination strategies using antigenic peptides from the above antigens.

[2] = test system: serine 15-phosphorylated p53, E2F1 (cells lacking functional ATM); test: Western blot of p53 serine 15 phosphorylation and E2F1 in AT fibroblasts; assay type: cell-based, human; conditions: 40 μM; 48 hours
Protocol: Because the serine 15 site on p53 is known to be phosphorylated in an ATM-dependent manner after exposure to ionizing radiation (IR), we wished to examine the role of ATM in E2F1 induction and p53 serine 15 phosphorylation in response to the 11 mer-1. Fibroblasts from a patient with ataxia telangiectasia (AT) known to lack functional ATM protein, and age-matched normal control fibroblasts (N) were treated with either diluent, 40 μM 11mer-1, sham irradiation or IR (10 Gy). Cells were collected 3 hours (sham or IR) or 48 hours (diluent, 11mer-1) for western blot analysis to detect serine 15-phosphorylated p53 and total p53. In normal fibroblasts, the 11mer-1 induced a 10–15 fold increase in the level p53 phosphorylation on serine 15 compared to diluent-treated controls.

[3] = test system: GADD 45, ERCC 3 and SDI 1 mRNA; test: Northern blot of GADD 45, ERCC 3 and SDI 1 in SCC12F cells; assay type: cell-based, human; conditions: 100 μM; as early as 24 hours, several days
Protocol: Paired cultures of SCC12F cells were maintained in a Dulbecco's modified Eagle's Medium-based keratinocyte growth medium (DMEM; GIBCO/BRL, Gaithersburg, Md.) supplemented with 10% fetal calf serum (Hyclone Labs, Logan, Utah) and epidermal growth factor as described (Hollander, M. C. et al., J. Biol. Chem. 268:328–336 (1992)). Pre-confluent cultures were given fresh medium supplemented with either 100 μM T2, or an equal volume of diluent. Cells were collected daily after additions, and processed for total RNA isolation using the Tri-Reagent extraction method (Molecular Research Center, Cincinnati, Ohio) following the protocol of the manufacturer. Ten micrograms of RNA from each sample was gel electrophoresed, transferred to a nylon filter and probed as described previously (Nada, A. et al., Exp. Cell Res. 211:90–98 (1994)). The cDNA for GADD 45 was generated by PCR using primers based on the human GADD 45 gene sequence (Mitsudomi, T. et al., Oncogene 7:171–180 (1992)). The cDNA for ERCC 3 was purchased from the American Type Culture Collection (ATCC, Rockville, Md.). The SDI 1 cDNA was a gift of Dr. J. Smith and has been described previously (Walworth, N.C. and Bernards, R., Science 271:353–356 (1996)).

SDI 1 mRNA = SDI 1 mRNA in H1299 cells with or without p53 expression vector; assay type: cell-based, human; conditions: 100 μM, 24 hours
Protocol: Preconfluent cultures of H1299 cells were transfected with an expression vector containing the wild type human p53 cDNA under the control of the human cytomegalovirus promoter/enhancer (Dr. Bert Vogelstein, Johns Hopkins Oncology Center). Control transfections were performed using the vector from which the p53 cDNA was removed. Transfections were carried out using the Lipofectin Reagent Kit (GIBCO/BRL). One day after transfection, cells were collected for Western blot analysis using 20 μg total protein as described (Yaar, M. et al., J. Clin. Invest. 94:1550–1562 (1994)). p53 was detected using mAb 421, anti-mouse Ig linked to horseradish peroxidase (Amersham, Arlington Heights, Ill.) and an ECL-kit (Amersham), following the directions of the manufacturer. At the time of protein collection, duplicate cultures of H1299 cells transfected with the p53 expression vector (designated “p53”) or control vector (“Ctrl”) were given either diluent (DMEM) or 100 μM pTpT. After 24 hours, the cells were collected, processed for RNA isolation and Northern blot analysis with an SDI 1 cDNA probe. The autoradiograph was scanned using a Macintosh IIsi computer and Macintosh One Scanner, and the brightness and contrast were adjusted to display differences in autoradiographic signals maximally. […]

IL-10 = IL-10 mRNA (RT-PCR) and protein (ELISA) in keratinocytes; assay type: cell-based, human
Protocol: The immunomodulatory effect of pTpT was tested in vitro using human keratinocytes. Duplicate cultures of primary human keratinocytes were treated with pTpT, diluent or UVB irradiation (200 J/m^2) or sham irradiation. Cells were collected at various times after treatment and analyzed for IL-10 protein by ELISA and for IL-10 mRNA by RT-PCR. An increase in IL-10 mRNA was detected after 6 hours in irradiated cells and after 48 hours in pTpT treated cells. An increase in IL-10 protein of 18 pg/ml was detected 24 hours after irradiation and 15±2 pg/ml 72 hours after treatment with pTpT. […] In the allogenic MLR, T cell activation is measured as lymphocyte proliferation, measured by ^3H-thymidine incorporation. IL-10 activity of culture medium from the 72 hour pTpT sample was measured by addition of the >10 kD components (containing the 18 kD IL-10 protein). […] Thus, like UVB irradiation, pTpT induces IL-10 in human keratinocytes which is likely to cooperate with TNFα to inhibit contact hypersensitivity in pTpT treated skin.

TNF-α gene = test: TNFα promoter CAT reporter transgene in skin; assay type: in vivo, mice; conditions: intracutaneous pTpT 100 μM; LPS 1 μg/ml
Protocol: In another experiment, TNF-α gene activation was measured by utilizing mice carrying a CAT reporter transgene bearing the entire TNFα promoter and 3′-untranslated region. Transgenic mice were subjected to the following treatment prior to skin assay for CAT expression: UVB irradiation (200–700 J/m^2), intracutaneous injection of pTpT (100 μM); lipopolysaccharide (LPS 1 μg/ml) as positive control, or vehicle alone.

Substance	induction of E2F1 and p73 ([1]; 40 μM)	differentiation markers Mart-1, tyrosinase, TRP-1 and gp-100 ([1]; 48–72 hours after treatment)	increase in p53 phosphorylation on serine 15 [2]	mRNAs for GADD 45, ERCC 3 and SDI 1 [3]	level of SDI 1 transcript (SDI 1 mRNA; H1299 transfected with wild-type p53 expression vector)	level of SDI 1 transcript (SDI 1 mRNA; p53-null H1299 cells)	increase in IL-10 protein (IL-10; 72 hours after treatment)	time after which an increase in IL-10 mRNA was detected (IL-10; primary human keratinocytes)	CAT activity in skin (TNF-α gene)
pGTTAGGGTTAG (DNA {P}-dGdTdTdAdGdGdGdTdTdAdG) [SEQ ID NO: 5]	the same pattern of induction for E2F1 and p73 as observed for Jurkat cells	upregulated	< 50%	–	–	–	–	–	–
thymidine dinucleotide [pTpT]	–	–	–	up-regulated	inducible by addition of pTpT	not affected by addition of pTpT	15 ± 2 pg/mL	48 h	CAT activity was detected
